Key:
[1] = system: HCT116 MTAP null cells; test: HCT116 MTAP null cell proliferation / viability (CellTiter-Glo, 6 days); format: cell-based; settings: HCT116-MTAP null, 144 h, HCT116 MTAP null cells, 6 days, CellTiter-Glo; read-out: HCT-116 MTAP null IC50
Procedure, shortened: (§1)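 IC50 values derive from sigmoidal dose-response fits, some with Hill slope fixed at −1 and top constrained to 100%, others from 4-parameter logistic models. They reflect CellTiter-Glo viability after 6 days of compound exposure at up to 10 or 50 μM.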

[2] = system: HCT116 WT cells; test: HCT116 WT cell proliferation / viability (CellTiter-Glo, 6 days); format: cell-based; settings: Homo sapiens, HCT-116, 144 h, HCT116 WT cells, 6 days, CellTiter-Glo; read-out: HCT-116 WT IC50
Procedure, shortened: as §1

| IC50 [1] [nM] | IC50 [2] [nM] | SMILES |
| --- | --- | --- |
| 23 | 767 | Cn1cc(N(Cc2ccc(C(F)(F)F)nn2)C(=O)c2cc3c4c(c(N)nc3cc2F)COC4)cn1 [Example 750, 4-amino-7-fluoro-N-(1-methyl-1H-pyrazol-4-yl)-N-((6-(trifluoromethyl)-3-pyridazinyl)methyl)-1,3-dihydrofuro[3,4-c]quinoline-8-carboxamide] |
| 17 | 337 | Cn1cc(N(Cc2ccc(C(F)(F)F)nn2)C(=O)c2cc3c4c(c(N)nc3cc2Cl)COC4)cn1 [Example 751, 4-amino-7-chloro-N-(1-methyl-1H-pyrazol-4-yl)-N-((6-(trifluoromethyl)-3-pyridazinyl)methyl)-1,3-dihydrofuro[3,4-c]quinoline-8-carboxamide] |
| 33 | 771 | CCOc1ccc(CN(CC2CC2)C(=O)c2cc3c4c(c(N)nc3cc2F)COC4)nn1 [Example 752, 4-amino-N-(cyclopropylmethyl)-N-((6-ethoxy-3-pyridazinyl)methyl)-7-fluoro-1,3-dihydrofuro[3,4-c]quinoline-8-carboxamide] |
| 124 | 3890 | CCOc1ccc(CN(CC2CC2)C(=O)c2cc3c4c(c(N)nc3cn2)COC4)nn1 [Example 753, 4-amino-N-(cyclopropylmethyl)-N-((6-ethoxy-3-pyridazinyl)methyl)-1,3-dihydrofuro[3,4-c][1,7]naphthyridine-8-carboxamide] |
| 24 | 370 | CC(C)N(Cc1ccc(C(F)(F)F)cn1)C(=O)c1ccc2nc(N)c3ccncc3c2c1 [Example 754, 5-amino-N-(2-propanyl)-N-((5-(trifluoromethyl)-2-pyridinyl)methyl)benzo[c][2,6]naphthyridine-9-carboxamide] |
| 892 | 6420 | CC(C)N(Cc1ccc(C(F)(F)F)cn1)C(=O)c1ccc2nc(N)c3ncncc3c2c1 [Example 755, 5-amino-N-(2-propanyl)-N-((5-(trifluoromethyl)-2-pyridinyl)methyl)pyrimido[4,5-c]quinoline-9-carboxamide] |
| 49 | 744 | CC(C)N(Cc1ccc(C(F)(F)F)cn1)C(=O)c1cc2c(cn1)nc(N)c1ccncc12 [Example 756, 5-amino-N-(2-propanyl)-N-((5-(trifluoromethyl)-2-pyridinyl)methyl)pyrido[4,3-c][1,7]naphthyridine-9-carboxamide] |
| 26 | 1320 | Cn1cc(N(Cc2ccc(C(F)(F)F)cn2)C(=O)c2ccc3nc(N)c4cnn(C)c4c3c2)cn1 [Example 757, 4-amino-1-methyl-N-(1-methyl-1H-pyrazol-4-yl)-N-((5-(trifluoromethyl)-2-pyridinyl)methyl)-1H-pyrazolo[4,3-c]quinoline-8-carboxamide] |
| 37 | 658 | CCOc1ccc(CN(C(=O)c2ccc3nc(N)c4c(cnn4C)c3c2)[C@H](C)c2ncccn2)nn1 [Example 758, 4-amino-N-((6-ethoxy-3-pyridazinyl)methyl)-3-methyl-N-((1R)-1-(2-pyrimidinyl)ethyl)-3H-pyrazolo[3,4-c]quinoline-8-carboxamide] |
| 6730 | 11800 | CCN(C(=O)c1ccc2nc(N)c3c(c2c1)COC3)C(C)(C)c1ccc(C(F)(F)F)cc1 [Example 759, 4-amino-N-ethyl-N-(2-(4-(trifluoromethyl)phenyl)-2-propanyl)-1,3-dihydrofuro[3,4-c]quinoline-8-carboxamide] |
| 743 | 6100 | CC(C)N(Cc1ccc(C(F)(F)F)cn1)C(=O)c1cc2c(cn1)nc(N)c1ncncc12 [Example 760, 5-amino-N-(2-propanyl)-N-((5-(trifluoromethyl)-2-pyridinyl)methyl)pyrimido[4,5-c][1,7]naphthyridine-9-carboxamide] |
| 305 | 13600 | CC[C@H](c1ccc(C(F)(F)F)cn1)N(CC)C(=O)c1cc2c3c(c(N)nc2cn1)COC3 [Example 761, 4-amino-N-ethyl-N-((1R)-1-(5-(trifluoromethyl)-2-pyridinyl)propyl)-1,3-dihydrofuro[3,4-c][1,7]naphthyridine-8-carboxamide] |
| 26 | 621 | CCN(C(=O)c1cc2c3c(c(N)nc2cc1F)COC3)[C@H](C)c1ccc(C(F)(F)F)cn1 [Example 762, 4-amino-N-ethyl-7-fluoro-N-((1R)-1-(5-(trifluoromethyl)-2-pyridinyl)ethyl)-1,3-dihydrofuro[3,4-c]quinoline-8-carboxamide] |
| 113 | 4810 | CCN(C(=O)c1cc2c3c(c(N)nc2cn1)COC3)[C@H](C)c1ccc(C(F)(F)F)nn1 [Example 763, 4-amino-N-ethyl-N-((1R)-1-(6-(trifluoromethyl)-3-pyridazinyl)ethyl)-1,3-dihydrofuro[3,4-c][1,7]naphthyridine-8-carboxamide] |
| 49 | 1980 | CCOc1ccc(CN(CC2CC2)C(=O)c2cc3c(cc2F)nc(N)c2c3cnn2C)nn1 [Example 765, 4-amino-N-(cyclopropylmethyl)-N-((6-ethoxy-3-pyridazinyl)methyl)-7-fluoro-3-methyl-3H-pyrazolo[3,4-c]quinoline-8-carboxamide] |
| 61 | 1910 | CCOc1ccc(CN(CC2CC2)C(=O)c2ccc3nc(N)c4c(c3c2)CO[C@@H]4C)nn1 [Example 766, (3R)-4-amino-N-(cyclopropylmethyl)-N-((6-ethoxy-3-pyridazinyl)methyl)-3-methyl-1,3-dihydrofuro[3,4-c]quinoline-8-carboxamide] |
| 2270 | > 50000 | CCN(C(=O)c1cc2c3c(c(N)nc2cn1)COC3)[C@@H](c1ccc(C(F)(F)F)nn1)C1CC1 [Example 767, 4-amino-N-((R)-cyclopropyl(6-(trifluoromethyl)-3-pyridazinyl)methyl)-N-ethyl-1,3-dihydrofuro[3,4-c][1,7]naphthyridine-8-carboxamide] |
| 4230 | > 50000 | C[C@@H](NC(=O)c1ccc2nc(N)c3c(c2c1)CO[C@@H]3C)c1ccc(C(F)(F)F)cn1 [Example 768, (3R)-4-amino-3-methyl-N-((1R)-1-(5-(trifluoromethyl)-2-pyridinyl)ethyl)-1,3-dihydrofuro[3,4-c]quinoline-8-carboxamide] |
| 115 | 7500 | Cc1ccc(CN(C)C(=O)c2cc3c(cc2F)nc(N)c2cnn(C)c23)nc1 [Example 769, 4-amino-7-fluoro-N,1-dimethyl-N-((5-methyl-2-pyridinyl)methyl)-1H-pyrazolo[4,3-c]quinoline-8-carboxamide] |
| 253 | 19400 | CN(Cc1ccc(F)cn1)C(=O)c1cc2c(cc1F)nc(N)c1cnn(C)c12 [Example 770, 4-amino-7-fluoro-N-((5-fluoro-2-pyridinyl)methyl)-N,1-dimethyl-1H-pyrazolo[4,3-c]quinoline-8-carboxamide] |
| 395 | 31100 | CN(Cc1ccc(F)nc1F)C(=O)c1cc2c(cc1F)nc(N)c1cnn(C)c12 [Example 771, 4-amino-N-((2,6-difluoro-3-pyridinyl)methyl)-7-fluoro-N,1-dimethyl-1H-pyrazolo[4,3-c]quinoline-8-carboxamide] |
| 106 | 2630 | CCN(C(=O)c1cc2c3c(c(N)nc2cn1)COC3)[C@H](C)c1ccc(C(F)F)cn1 [Example 773, 4-amino-N-((1R)-1-(5-(difluoromethyl)-2-pyridinyl)ethyl)-N-ethyl-1,3-dihydrofuro[3,4-c][1,7]naphthyridine-8-carboxamide] |
| 736 | 40600 | C[C@H](c1cnc(C(F)(F)F)cn1)N(C)C(=O)c1ccc2nc(N)c3c(c2c1)COC3 [Example 774, 4-amino-N-methyl-N-((1R)-1-(5-(trifluoromethyl)-2-pyrazinyl)ethyl)-1,3-dihydrofuro[3,4-c]quinoline-8-carboxamide] |
| 33 | 2680 | CCN(C(=O)c1ccc2nc(N)c3c(c2c1)CO[C@@H]3C)[C@H](C)c1ccc(C(F)F)cn1 [Example 775, (3R)-4-amino-N-((1R)-1-(5-(difluoromethyl)-2-pyridinyl)ethyl)-N-ethyl-3-methyl-1,3-dihydrofuro[3,4-c]quinoline-8-carboxamide] |
| 150 | > 10000 | C[C@H](c1cnc(C(F)(F)F)cn1)N(C)C(=O)c1ccc2nc(N)c3cnn(C)c3c2c1 [Example 776, 4-amino-N,1-dimethyl-N-((1R)-1-(5-(trifluoromethyl)-2-pyrazinyl)ethyl)-1H-pyrazolo[4,3-c]quinoline-8-carboxamide] |
| 25 | 1380 | CCN(C(=O)c1ccc2nc(N)c3c(c2c1)CO[C@@H]3C)[C@H](C)c1ccc(C(F)(F)F)cn1 [Example 777, (3R)-4-amino-N-ethyl-3-methyl-N-((1R)-1-(5-(trifluoromethyl)-2-pyridinyl)ethyl)-1,3-dihydrofuro[3,4-c]quinoline-8-carboxamide] |
| 49 | 2660 | CCN(C(=O)c1ccc2nc(N)c3c(c2c1)CO[C@@H]3C)[C@H](C)c1ccc(C(F)(F)F)nn1 [Example 778, (3R)-4-amino-N-ethyl-3-methyl-N-((1R)-1-(6-(trifluoromethyl)-3-pyridazinyl)ethyl)-1,3-dihydrofuro[3,4-c]quinoline-8-carboxamide] |
| 364 | 28900 | C[C@H](c1ccc(C(F)(F)F)nn1)N(C)C(=O)c1cc2c(cc1F)nc(N)c1c2cnn1C [Example 779, 4-amino-7-fluoro-N,3-dimethyl-N-((1R)-1-(6-(trifluoromethyl)-3-pyridazinyl)ethyl)-3H-pyrazolo[3,4-c]quinoline-8-carboxamide] |

Reference: patent US20240101570A1 (AMGEN INC., priority 2020, published 2024)
